We go through one compound from EP1022029A1, “NOOTROPIC AGENT” (priority 1997, dated 1999).

For assay [1], the system named is postsynaptic potentials evoked from the hippocampal CA1 region. The assay is described as follows: Postsynaptic potentials recorded in the CA1 pyramidal cell layer of rat hippocampal slices. It is filed as cell-based.
Assay [2] concerns postsynaptic potential of a slice of the rat hippocampus. Briefly: Paired-pulse facilitation of the postsynaptic potential in hippocampal slices. It is filed as cell-based. The settings on record: nefiracetam-administered slices; interpulse intervals 50 to 150 msec. Here is the method: Paired pulses were applied to slices at varying interpulse intervals, between 50 and 150 msec before and 10 minute after the administration of nefiracetam. […] Briefly, reaction induced by the first pulse application was potentiated to a maximum of 120% by the next pulse application. However, the pulses were consistently lower than those obtained with slices that had not been administered nefiracetam (Table 6); therefore, nefiracetam is considered to maximally enhance release of glutamate serving as an excitatory neurotransmitter.

Assay [3] concerns glutamate release from hippocampal slices. It is filed as cell-based, guinea pig.
Assay [4] concerns field excitatory postsynaptic potentials (fEPSP). Briefly: Field excitatory postsynaptic potentials (fEPSP slope) in rat hippocampal slices, CA1. As to conditions: nefiracetam 1 µM applied for 10 minutes. It is filed as cell-based. Here is the method: Long-lasting facilitation of hippocampal synaptic transmission induced by nefiracetam was investigated. The field excitatory postsynaptic potentials (fEPSP) were recorded in the pyramidal cell layer of the CA1 region by electrical stimulation to the Schaeffer collateral pathway in rat hippocampla slices. Nefiracetam (1 µM) was applied to the hippocampla slices for 10 minutes. After nefiracetam application, fEPSPs were gradually augmented. This effect was observed until 240 minutes had passed since the experiment ended (Table 18-2).
Next, investigation was made regarding whether the above effect exerted by the present drug differs from the onset mechanism for long-term potentiation (LTP) action exerted when tetanic stimulation was used. The following three groups were compared: (group 1) tetanic stimulation alone; (group 2) nefiracetam + tetanic stimulation; (group 3) tetanic stimulation + nefiracetam. As a result, the fEPSPs that had been potentiated by nefiracetam was not potentiated any longer even when subsequent tetanic stimulation was applied. Likewise, the fEPSPs that had been potentiated by tetanic stimulation was not potentiated any longer even after subsequent application of nefiracetam. The amplitudes of potentiation of these two types of fEPSP were the same as the amplitude of tetanic stimulation. […]

Assay [5] relates to excitatory postsynaptic potential in the brain. The assay is described as follows: Excitatory postsynaptic potential (PS) in the brain in vivo, hippocampal granular cell layer. Also noted: species or system mice. Here is the method: A group of mice were provided. The head of each mouse was fixed, and electrodes were inserted into the granular cell layer of the hippocampal region. PS was recorded. Nefiracetam was intramuscularly injected (7.5 mg/kg). […] This effect was confirmed even after 960 minutes. Thus, the effect obtained in vitro was also confirmed in an in vivo experiment […].

Like-named read-outs stand apart in the source and are kept apart here.

As for `Cc1cccc(C)c1NC(=O)CN1CCCC1=O` [nefiracetam, 2-oxo-1-pyrrolidinylacetic acid 2,6-dimethylanilide], the “Postsynaptic potential (% of original amplitude)” value in assay [1] (Nefiracetam 0.01 µM, GF109203X(100nM), 10 min after treatment, n=5) is recorded as 50 ± 5%; in assay [1] (Nefiracetam 0.01 µM, H-89(1µM), 10 min after treatment, n=5), 103 ± 8%; in assay [1] (Nefiracetam 1 µM, GF109203X(100nM), 10 min after treatment, n=5), 108.8 ± 11.6%; in assay [1] (Nefiracetam 1 µM, H-89(1µM), 10 min after treatment, n=5), 155 ± 8%. Moreover, the activity at 0.01 µM in assay [1] (Rattus norvegicus, 10 min, Nefiracetam 0.01 µM, Control (no inhibitor), 10 min after treatment, n=5, read-out: Postsynaptic potential (% of original amplitude)) is 85 ± 5%; in assay [1] (Rattus norvegicus, nefiracetam 0.01 µM, Mean ± SD, n = 5 to 7, read-out: Postsynaptic potential (% of original amplitude)) it was 94 ± 5%. In addition, the activity at 1 µM in assay [1] (Rattus norvegicus, 10 min, Nefiracetam 1 µM, Control (no inhibitor), 10 min after treatment, n=5, read-out: Postsynaptic potential (% of original amplitude)) is 143 ± 2%; in assay [1] (Rattus norvegicus, 1 h, 60 minutes after the 1 µM treatment, read-out: magnitude of maximum facilitation of the postsynaptic potentials), about 150%; in assay [1] (Rattus norvegicus, nefiracetam 1 µM, Mean ± SD, n = 5 to 7, read-out: Postsynaptic potential (% of original amplitude)) it was 156 ± 6%. The activity at 0.001 µM in assay [1] (Rattus norvegicus, nefiracetam 0.001 µM, Mean ± SD, n = 5 to 7, read-out: Postsynaptic potential (% of original amplitude)) was determined as 95 ± 6%. In assay [1] (Rattus norvegicus, nefiracetam 0.1 µM, Mean ± SD, n = 5 to 7, read-out: Postsynaptic potential (% of original amplitude)), the activity at 0.1 µM came to 111 ± 9%. In assay [1] (Rattus norvegicus, read-out: Postsynaptic potential (% of original amplitude), nefiracetam 10 µM, Mean ± SD, n = 5 to 7), the activity at 10 µM was determined as 144 ± 11%. Further, the “concentrations giving short-term suppression of the postsynaptic potentials” value in assay [1] (biphasic effect, lower concentrations) is at most 0.1 µM. In addition, in assay [2], the “paired-pulse facilitation: reaction to first pulse potentiated by the next pulse” value is listed as at most 120%. Moreover, the “effect on glutamate release” value in assay [3] (1 µM, depolarization by electrical stimulation) is “significantly increased”. Moreover, the “Amount of released glutamate” value in assay [3] (St (ES+) electrical stimulation, nefiracetam 1 µM, tetrodotoxin 0.5 µM, α-bungarotoxin 50 nM, mecamylamine 3 µM) is on record as 3.23 ± 0.5 (a) nmol/mg protein/10min. Besides, the “time until which augmentation of fEPSPs was observed” value in assay [4] was at least 240 min. In assay [5] (7.5 mg/kg intramuscularly, mice), the “time after which potentiation of the excitatory postsynaptic potential was still confirmed” value was at least 960 min. Further, the “effect on excitatory postsynaptic potential (PS) in vivo” value in assay [5] (administered to animals) is reported as “significant potentiation”.
